Source: US12227501B2, “3-amino-2-[2-(acylamino)pyridin-4-yl]-1,5,6,7-tetrahydro-4h-pyrrolo[3,2-c]pyridin-4-one as CSNK1 inhibitors” (Bayer Aktiengesellschaft, priority 2019, dated 2025)

Legend:
human CSNK1A1 [1] = molecular target: T1, human CSNK1A1 (Homo sapiens (Human), UniProt P48729); assay: CSNK1A1 Assay 2 (ADP-Glo, 1 μM ATP); type: biochemical; details: substrate biotin-Ahx-KRRRAL-pS-VASLPGL, read-out: CSNK1A1 Assay 2 IC50 [mol/l] (median)
Summary of the method: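 Full-length human CSNK1A1 as an N-terminal GST fusion (baculovirus/insect cells) with biotinylated peptide substrate biotin-Ahx-KRRRAL-pS-VASLPGL and 1 μM ATP, in HEPES pH 7.5 buffer. Compounds were pre-incubated with enzyme (~0.0375 ng/μL) for 15 min at 22 °C. Generated ADP was read by ADP-Glo luminescence as the activity measure.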

human CSNK1A1 [2] = molecular target: T1, human CSNK1A1; assay: CSNK1A1 High ATP Assay (ADP-Glo, 1 mM ATP); type: biochemical; details: read-out: CSNK1A1 high ATP assay IC50 [mol/l] (median)
Summary of the method: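 Kinase activity taken as ADP generated, quantified by ADP-Glo luminescence after 1 h ATP depletion and 1 h detection at 22 °C. Enzyme is GST–full-length human CSNK1A1 (insect cell-expressed), pre-bound to compound for 15 min, with phosphopeptide substrate and 1 mM ATP.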

T1 sequence (P48729 whole entry, the tested form may be a part): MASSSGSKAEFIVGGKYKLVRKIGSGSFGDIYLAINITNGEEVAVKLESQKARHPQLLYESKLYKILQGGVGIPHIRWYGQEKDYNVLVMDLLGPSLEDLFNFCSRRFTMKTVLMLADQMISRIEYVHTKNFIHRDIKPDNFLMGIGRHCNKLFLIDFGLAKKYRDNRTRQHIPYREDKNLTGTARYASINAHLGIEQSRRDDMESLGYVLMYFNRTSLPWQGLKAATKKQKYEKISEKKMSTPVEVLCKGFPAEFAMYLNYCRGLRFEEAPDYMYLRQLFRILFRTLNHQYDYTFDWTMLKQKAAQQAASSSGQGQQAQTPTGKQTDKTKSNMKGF

| Structure (SMILES) | IC50 (human CSNK1A1 [1]) | IC50 (human CSNK1A1 [2]) |
| --- | --- | --- |
| C[C@@H](C(=O)Nc1cc(-c2[nH]c3c(c2Nc2ccccc2)C(=O)N(C)CC3)ccn1)c1ccc(F)cc1 (single isomer, unassigned) [Example 6] | 44 nM | 1600 nM |
| C[C@H](C(=O)Nc1cc(-c2[nH]c3c(c2Nc2ccccc2)C(=O)N(C)CC3)ccn1)c1ccc(F)cc1 (single isomer, unassigned) [Example 5] | 4.45 nM | 63.4 nM |
| CN1CCc2[nH]c(-c3ccnc(NC(=O)Cc4ccc(F)cc4)c3)c(Nc3ccccc3)c2C1=O [Example 1, N-[4-(3-anilino-5-methyl-4-oxo-4,5,6,7-tetrahydro-1H-pyrrolo[3,2-c]pyridin-2-yl)pyridin-2-yl]-2-(4-fluorophenyl)acetamide] | 1.97 nM | 28.4 nM |
| CC(C(=O)Nc1cc(-c2[nH]c3c(c2Nc2ccccc2)C(=O)N(C)CC3)ccn1)c1ccc(F)cc1 (centres unmarked) [Example 4, N-[4-(3-anilino-5-methyl-4-oxo-4,5,6,7-tetrahydro-1H-pyrrolo[3,2-c]pyridin-2-yl)pyridin-2-yl]-2-(4-fluorophenyl)propanamide] | 5.49 nM | 115 nM |
